Drawing on BindingDB's records for PubMed 39892094 (University of Lubeck and University Medical Center …), this text covers IC50 and EC50 for 4 compounds.

Data set [1] is described as follows: Inhibition of MCT-1 in human A549 cells assessed as potentiation of 3-BP-mediated cytotoxicity by measuring decrease in cell viability incubated for 72 hrs in presence of 3-BP by MTT assay. On the technique in general: Formazan colour is commonly taken as a measure of viable cells.
Data set [2] can be described thus: Reversal of ABCG2 (unknown origin)-mediated multidrug resistance transfected in dog MDCK-II-BCRP cells assessed as increase in SN-38-mediated cytotoxicity incubated for 72 hrs in presence of SN-38 by MTT assay.
The nature of data set [3]: Reversal of ABCB1-mediated multidrug resistance in human A2780 ADR cells assessed as increase in doxorubicin-mediated cytotoxicity incubated for 72 hrs in presence of doxorubicin by MTT assay.
The nature of data set [4]: Reversal of ABCC1-mediated multidrug resistance in human NCI-H69AR cells assessed as increase in doxorubicin-mediated cytotoxicity incubated for 72 hrs in presence of doxorubicin by MTT assay.

As usually defined, the IC50 is the concentration at which inhibition is half-maximal. Broadly, the EC50 is the concentration giving half of the maximal effect. For the compound `O=C(Cn1nc(C(=O)Nc2ccccn2)c2ccccc21)Nc1cc(Cl)ccc1Cl`, in data set [1], the IC50 came to 1.89 µM. In addition, the EC50 in data set [2] was 0.326 µM; in data set [3], 0.089 µM; in data set [4], 33.1 µM.

Regarding `O=C(Cn1nc(C(=O)Nc2cccnc2)c2ccccc21)Nc1ccc(Cl)cc1`, in data set [1], the IC50 came out at 3.32 µM. Moreover, the EC50 in data set [2] worked out at 1.05 µM; in data set [3] it was 4.67 µM; in data set [4], 6.86 µM.

For the compound `COc1cccc(NC(=O)c2nn(CC(=O)Nc3ccccc3OC)c3ccccc23)c1`, the EC50 is 0.603 µM in data set [2], 3.34 µM in data set [3] and 5.53 µM in data set [4].

On to `COc1cccc(NC(=O)Cn2nc(C(=O)Nc3cccc(OC)c3)c3ccccc32)c1`, for which the EC50 is 2.01 µM in data set [3] and 8.55 µM in data set [4].
